Reference: ChEMBL document CHEMBL1123385, “Stereoselectivity of a potent calcium antagonist, 1-benzyl-3-pyrrolidinyl methyl 2,6-dimethyl-4-(m-nitrophenyl)-1,4-dihydropyridine-3,5-dicarboxylate” (J Med Chem, 1986)

Experiments:
Rattus norvegicus = species: Rattus norvegicus; assay: Hill coefficient of the compound; settings: in vitro
Canis familiaris = assay: The compound was tested for coronary vasodilating activity in anesthetized coronary perfused dogs; format: functional, Canis lupus familiaris
[1] = target: Voltage-gated L-type calcium channel (Rattus norvegicus, UniProt P22002+Q02485+P27732); assay: Inhibition of [3H]nitrendipine binding to L-type calcium channel from rat brain cortex homogenate

SMILES	Hill coefficient (Rattus norvegicus)	ED100 (Canis familiaris)	Ki [1]
COC(=O)C1=C(C)NC(C)=C(C(=O)OC)C1c1ccccc1[N+](=O)[O-] [NIFEDIPINE]	1.105		
CO/C(O)=C1\C(C)=NC(C)=C(C(=O)O[C@@H]2CCN(Cc3ccccc3)C2)[C@@H]1c1cccc([N+](=O)[O-])c1.Cl	1.143	3.1 µg	14.3 nM l-1
CO/C(O)=C1\C(C)=NC(C)=C(C(=O)O[C@@H]2CCN(Cc3ccccc3)C2)[C@H]1c1cccc([N+](=O)[O-])c1.Cl	0.752	1.6 µg	3.09 nM l-1
CO/C(O)=C1\C(C)=NC(C)=C(C(=O)O[C@H]2CCN(Cc3ccccc3)C2)[C@@H]1c1cccc([N+](=O)[O-])c1.Cl (racemic)	0.957	9.1 µg	49.6 nM l-1
COC(=O)C1=C(C)NC(C)=C(C(=O)OCCN(C)Cc2ccccc2)[C@@H]1c1cccc([N+](=O)[O-])c1	1.241		7.11 nM l-1
COC(=O)C1=C(C)NC(C)=C(C(=O)OCCN(C)Cc2ccccc2)C1c1cccc([N+](=O)[O-])c1 (racemic) [NICARDIPINE]	1.054		0.84 nM l-1
COC(=O)C1=C(C)NC(C)=C(C(=O)OCCN(C)Cc2ccccc2)[C@H]1c1cccc([N+](=O)[O-])c1	1.286		0.499 nM l-1
CO/C(O)=C1\C(C)=NC(C)=C(C(=O)O[C@H]2CCN(Cc3ccccc3)C2)[C@H]1c1cccc([N+](=O)[O-])c1.Cl	1.203	0.57 µg	0.205 nM l-1
